Test results from the supplement of paper PMC10307832.

Tests used:
Experiment in all cases: relative viability (nuclei count vs DMSO), 5 days (fraction); higher = more cells survive
[1] = compound: C1COCCN1C2=NC(=NC3=C2OC4=C3C=CC=N4)C5=CC(=CC=C5)NC(=O)C6=CN=C(C=C6)N + CC1(C)CCC(c2ccc(Cl)cc2)=C(CN2CCN(c3ccc(C(=O)NS(=O)(=O)c4ccc(N[C@H](CCN5CCOCC5)CSc5ccccc5)c(S(=O)(=O)C(F)(F)F)c4)cc3)CC2)C1 [Navitoclax] (partner 0.5 µM)
Procedure, shortened: (§1)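 Relative viability was taken as the ratio of nuclei in treated wells to nuclei in vehicle wells. Lung cancer cell lines in 1536-well plates received compounds by pin tool one day after seeding, either one drug alone or a fixed anchor-drug dose plus five library-drug doses (not always all listed) in √10 steps. Nuclei were counted on 4× images after 5 days of treatment, and values are medians of duplicate plates.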

[2] = compound: Nc1ccccc1NC(=O)c1ccc(CNC(=O)OCc2cccnc2)cc1 [Entinostat] + C[C@]1(O)C[C@@H](c2nc(-c3ccc4ccc(-c5ccccc5)nc4c3)c3c(N)nccn32)C1 [Linsitinib] (partner 1 µM)
Procedure, shortened: as §1

[3] = compound: CN1CCC(CNc2ccc3ncc(-c4cccc(OC(F)(F)F)c4)n3n2)CC1 [SGI-1776] + COc1cccc2cc(-c3nc([C@H]4CC[C@H](C(=O)O)CC4)n4ncnc(N)c34)[nH]c12 [OSI-027] (partner 0.5 µM)
Procedure, shortened: as §1

[4] = compound: Nc1ccccc1NC(=O)c1ccc(CNC(=O)OCc2cccnc2)cc1 [Entinostat] + CC(=O)Nc1cccc(-n2c(=O)n(C3CC3)c(=O)c3c(Nc4ccc(I)cc4F)n(C)c(=O)c(C)c32)c1 [Trametinib] (partner 0.02 µM)
Procedure, shortened: as §1

Cell Line | relative viability ([1]; first compound 0.06325 µM) | relative viability ([1]; first compound 0.2 µM) | relative viability ([1]; first compound 0.6325 µM) | relative viability ([1]; first compound 2 µM) | relative viability ([2]; first compound 0.02 µM) | relative viability ([2]; first compound 0.06325 µM) | relative viability ([2]; first compound 0.2 µM) | relative viability ([2]; first compound 0.6325 µM) | relative viability ([2]; first compound 2 µM) | relative viability ([1]; first compound 0.02 µM) | relative viability ([3]; first compound 0.08 µM) | relative viability ([3]; first compound 0.8 µM) | relative viability ([3]; first compound 2.53 µM) | relative viability ([3]; first compound 8 µM) | relative viability ([4]; first compound 0.02 µM) | relative viability ([4]; first compound 0.06325 µM) | relative viability ([4]; first compound 0.2 µM) | relative viability ([4]; first compound 0.6325 µM) | relative viability ([4]; first compound 2 µM)
IA-LM | 0.751 | 0.705 | 0.656 | 0.374 | 0.645 | 0.774 | 0.785 | 0.628 | 0.543 | – | – | – | – | – | – | – | – | – | –
HCC-827 | 1.07 | 1.08 | 1.05 | 1.07 | 0.958 | 0.883 | 0.722 | 0.582 | 0.421 | 1.02 | 0.804 | 0.843 | 0.793 | 0.602 | 0.516 | 0.474 | 0.406 | 0.338 | 0.203
NCI-H661 | – | – | – | – | 0.481 | 0.769 | 0.678 | 0.725 | 0.624 | – | 0.766 | 0.867 | 0.611 | 0.596 | 0.62 | 0.605 | 0.715 | 0.536 | 0.363
CAL-12T | 1.41 | 1.23 | 1.11 | 0.883 | 0.838 | 0.815 | 0.814 | 0.909 | 0.392 | 1.06 | 0.771 | 0.592 | 0.652 | 0.481 | 0.362 | 0.306 | 0.355 | 0.297 | 0.252
NCI-H2342 | – | – | – | – | – | – | – | – | – | – | 0.671 | 0.671 | 0.552 | 0.622 | 0.855 | 0.659 | 0.713 | 0.605 | 0.673
SW 900 | – | – | – | – | – | – | – | – | – | – | 0.56 | 0.689 | 0.564 | 0.399 | 0.793 | 0.752 | 0.614 | 0.766 | 0.347
LC-2-ad | 0.529 | 0.418 | 0.611 | 0.379 | 0.769 | 0.831 | 0.7 | 0.489 | 0.219 | 0.461 | 0.918 | 0.806 | 0.973 | 0.548 | 0.894 | 0.883 | 0.83 | 0.698 | 0.479
EPLC-272H | 1.06 | 1.13 | 1.08 | 0.893 | 1.2 | 1.22 | 0.697 | 0.627 | 0.405 | 1.23 | 0.32 | 0.249 | 0.306 | 0.274 | 0.351 | 0.342 | 0.319 | 0.27 | 0.182
A-427 | 0.964 | 0.812 | 0.864 | 0.835 | 1.16 | 1.15 | 1.01 | 1.07 | 0.825 | 1 | 0.543 | 0.481 | 0.479 | 0.357 | 0.882 | 0.921 | 0.866 | 0.639 | 0.523
